Key:
HCT-15 = experiment: Growth inhibition of human HCT15 cells assessed as cell growth at 10 uM by sulforhodamine B assay relative to control; values are per cent of control
MDA-MB-231 = experiment: Growth inhibition of human MDA-MB-231 cells assessed as cell growth at 10 uM by sulforhodamine B assay relative to control; values are per cent of control
BT-549 = experiment: Growth inhibition of human BT549 cells assessed as cell growth at 10 uM by sulforhodamine B assay relative to control; values are per cent of control
K562 [1] = experiment: Growth inhibition of human K562 cells assessed as cell growth at 10 uM by sulforhodamine B assay relative to control; values are per cent of control
SNB-75 = experiment: Growth inhibition of human SNB75 cells assessed as cell growth at 10 uM by sulforhodamine B assay relative to control; values are per cent of control
CAKI-1 = experiment: Growth inhibition of human CAKI-1 cells assessed as cell growth at 10 uM by sulforhodamine B assay relative to control; values are per cent of control
786-0 = experiment: Growth inhibition of human 786-0 cells assessed as cell growth at 10 uM by sulforhodamine B assay relative to control; values are per cent of control
A498 = experiment: Growth inhibition of human A498 cells assessed as cell growth at 10 uM by sulforhodamine B assay relative to control; values are per cent of control
[2] = Growth inhibition of human NCI-ADR-RES cells assessed as cell growth at 10 uM by sulforhodamine B assay relative to control; values are per cent of control
A549 = experiment: Growth inhibition of human A549/ATCC cells assessed as cell growth at 10 uM by sulforhodamine B assay relative to control; values are per cent of control
SF-268 = experiment: Growth inhibition of human SF268 cells assessed as cell growth at 10 uM by sulforhodamine B assay relative to control; values are per cent of control
[3] = Growth inhibition of human SF539 cells assessed as cell growth at 10 uM by sulforhodamine B assay relative to control; values are per cent of control; details: SF-539
SF-295 = experiment: Growth inhibition of human SF295 cells assessed as cell growth at 10 uM by sulforhodamine B assay relative to control; values are per cent of control
M14 = experiment: Growth inhibition of human M14 cells assessed as cell growth at 10 uM by sulforhodamine B assay relative to control; values are per cent of control
T47D = experiment: Growth inhibition of human T47D cells assessed as cell growth at 10 uM by sulforhodamine B assay relative to control; values are per cent of control
HT-29 = experiment: Growth inhibition of human HT-29 cells assessed as cell growth at 10 uM by sulforhodamine B assay relative to control; values are per cent of control
[4] = Growth inhibition of human UACC257 cells assessed as cell growth at 10 uM by sulforhodamine B assay relative to control; values are per cent of control; details: UACC-257
PC-3 = experiment: Growth inhibition of human PC3 cells assessed as cell growth at 10 uM by sulforhodamine B assay relative to control; values are per cent of control
UACC-62 = experiment: Growth inhibition of human UACC62 cells assessed as cell growth at 10 uM by sulforhodamine B assay relative to control; values are per cent of control
LOX IMVI = experiment: Growth inhibition of human LOXIMVI cells assessed as cell growth at 10 uM by sulforhodamine B assay relative to control; values are per cent of control
HOP-62 = experiment: Growth inhibition of human HOP62 cells assessed as cell growth at 10 uM by sulforhodamine B assay relative to control; values are per cent of control
HCT-116 = experiment: Growth inhibition of human HCT116 cells assessed as cell growth at 10 uM by sulforhodamine B assay relative to control; values are per cent of control
SNB-19 [5] = experiment: Growth inhibition of human SNB19 cells assessed as cell growth at 10 uM by sulforhodamine B assay relative to control; values are per cent of control
SK-OV-3 = experiment: Growth inhibition of human SKOV3 cells assessed as cell growth at 10 uM by sulforhodamine B assay relative to control; values are per cent of control
MDA-MB-468 = experiment: Growth inhibition of human MDA-MB-468 cells assessed as cell growth at 10 uM by sulforhodamine B assay relative to control; values are per cent of control
IGROV-1 [6] = experiment: Growth inhibition of human IGROV1 cells assessed as cell growth at 10 uM by sulforhodamine B assay relative to control; values are per cent of control
K562 [7] = experiment: Cytotoxicity against human K562 cells by sulforhodamine B assay; assay type: functional
SNB-19 [8] = experiment: Cytotoxicity against human SNB19 cells by sulforhodamine B assay; assay type: functional
SK-MEL-2 = experiment: Cytotoxicity against human SK-MEL-2 cells by sulforhodamine B assay; assay type: functional
[9] = Cytotoxicity against human NCI-ADR-RES cells by sulforhodamine B assay; assay type: functional
IGROV-1 [10] = experiment: Cytotoxicity against human IGROV1 cells by sulforhodamine B assay; assay type: functional
OVCAR-3 = experiment: Cytotoxicity against human OVCAR3 cells by sulforhodamine B assay; assay type: functional
Malme-3M = experiment: Cytotoxicity against human MALME-3M cells by sulforhodamine B assay; assay type: functional
[11] = read-out: LC50 (the source's name)

For `COc1ccc(/C=C/c2ccc(/C=C/C(=O)c3ccc(Cl)cc3)cc2)cc1`, the growth, % of control at 10 µM (HCT-15) was 101%, the growth, % of control at 10 µM (MDA-MB-231) was 117% and the growth, % of control at 10 µM (BT-549) was 93.4%. The growth, % of control at 10 µM (K562 [1]) was 87.3%, the growth, % of control at 10 µM (SNB-75) was 100% and the growth, % of control at 10 µM (CAKI-1) was 92.4%. It also gave a growth, % of control at 10 µM (786-0) of 91%, a growth, % of control at 10 µM (A498) of 76% and a growth, % of control at 10 µM [2] of 109%. For the same compound, the growth, % of control at 10 µM (A549) was 91.8%, the growth, % of control at 10 µM (SF-268) was 96.5% and the growth, % of control at 10 µM [3] was 109%. For the same compound, the growth, % of control at 10 µM (SF-295) was 87%, the growth, % of control at 10 µM (M14) was 104% and the growth, % of control at 10 µM (T47D) was 83.4%. For the same compound, the growth, % of control at 10 µM (HT-29) was 93%, the growth, % of control at 10 µM [4] was 101% and the growth, % of control at 10 µM (PC-3) was 108%. For the same compound, the growth, % of control at 10 µM (UACC-62) was 105%, the growth, % of control at 10 µM (LOX IMVI) was 95% and the growth, % of control at 10 µM (HOP-62) was 105%. The growth, % of control at 10 µM (HCT-116) was 93.3%, the growth, % of control at 10 µM (SNB-19 [5]) was 97.5% and the growth, % of control at 10 µM (SK-OV-3) was 102%. It also gave a growth, % of control at 10 µM (MDA-MB-468) of 113%.

Compound `COc1ccc(C(=O)/C=C/c2ccc(/C=C/c3ccc(Cl)cc3)cc2)cc1` has a growth, % of control at 10 µM (HCT-15) of 90.1%, a growth, % of control at 10 µM (MDA-MB-231) of 103% and a growth, % of control at 10 µM (BT-549) of 103%. It also gave a growth, % of control at 10 µM (K562 [1]) of 87.8%, a growth, % of control at 10 µM (SNB-75) of 97.2% and a growth, % of control at 10 µM (IGROV-1 [6]) of 95.7%. The growth, % of control at 10 µM (CAKI-1) was 93.9%, the growth, % of control at 10 µM (786-0) was 94% and the growth, % of control at 10 µM (A498) was 78.1%. For the same compound, the growth, % of control at 10 µM [2] was 111%, the growth, % of control at 10 µM (A549) was 100% and the growth, % of control at 10 µM (SF-268) was 96.5%. For the same compound, the growth, % of control at 10 µM [3] was 99.9%, the growth, % of control at 10 µM (SF-295) was 96.5% and the growth, % of control at 10 µM (M14) was 101%. For the same compound, the growth, % of control at 10 µM (T47D) was 81.6%, the growth, % of control at 10 µM (HT-29) was 104% and the growth, % of control at 10 µM [4] was 100%. The growth, % of control at 10 µM (PC-3) was 98.7%, the growth, % of control at 10 µM (UACC-62) was 92.7% and the growth, % of control at 10 µM (LOX IMVI) was 105%. It also gave a growth, % of control at 10 µM (HOP-62) of 101%, a growth, % of control at 10 µM (HCT-116) of 97.5% and a growth, % of control at 10 µM (SNB-19 [5]) of 97.6%. The growth, % of control at 10 µM (SK-OV-3) was 99.3% and the growth, % of control at 10 µM (MDA-MB-468) was 110%.

`COc1ccc(C(=O)/C=C/c2ccc(/C=C/c3cc(OC)c(OC)c(OC)c3)cc2)cc1` showed a GI50 (K562 [7]) of 3.03 µM, a TGI (K562 [7]) greater than 100 µM and a CC50 (K562 [7]; [11]) greater than 100 µM. The growth, % of control at 10 µM (HCT-15) was 33.6%, the GI50 (SNB-19 [8]) was 21.1 µM and the TGI (SNB-19 [8]) was greater than 100 µM. The CC50 (SNB-19 [8]; [11]) was greater than 100 µM, the GI50 (SK-MEL-2) was 1890 nM and the TGI (SK-MEL-2) was greater than 100 µM. The CC50 (SK-MEL-2; [11]) was greater than 100 µM, the growth, % of control at 10 µM (MDA-MB-231) was 76.8% and the growth, % of control at 10 µM (BT-549) was 41.6%. It also gave a GI50 [9] of 5.46 µM, a TGI [9] greater than 100 µM and a CC50 [9, 11] greater than 100 µM. The growth, % of control at 10 µM (K562 [1]) was 14.4%, the growth, % of control at 10 µM (SNB-75) was 59.8% and the growth, % of control at 10 µM (IGROV-1 [6]) was 6.66%. For the same compound, the growth, % of control at 10 µM (CAKI-1) was 74.4%, the growth, % of control at 10 µM (786-0) was 67.8% and the growth, % of control at 10 µM (A498) was 80%. The growth, % of control at 10 µM [2] was 50%, the growth, % of control at 10 µM (A549) was 36.4% and the growth, % of control at 10 µM (SF-268) was 66.2%. The growth, % of control at 10 µM [3] was 86.3%, the growth, % of control at 10 µM (SF-295) was 57.9% and the growth, % of control at 10 µM (M14) was 67%. The GI50 (IGROV-1 [10]) was 9.24 µM, the TGI (IGROV-1 [10]) was 76.4 µM and the CC50 (IGROV-1 [10]; [11]) was greater than 100 µM. For the same compound, the growth, % of control at 10 µM (T47D) was 43.4%, the growth, % of control at 10 µM (HT-29) was 36.2% and the growth, % of control at 10 µM [4] was 72.5%. For the same compound, the growth, % of control at 10 µM (PC-3) was 52.2%, the growth, % of control at 10 µM (UACC-62) was 53.6% and the GI50 (OVCAR-3) was 3.92 µM. For the same compound, the TGI (OVCAR-3) was 14.3 µM, the CC50 (OVCAR-3; [11]) was 74.4 µM and the growth, % of control at 10 µM (LOX IMVI) was 24.7%. For the same compound, the growth, % of control at 10 µM (HOP-62) was 71%, the growth, % of control at 10 µM (HCT-116) was 17.5% and the GI50 (Malme-3M) was 13.2 µM. For the same compound, the TGI (Malme-3M) was greater than 100 µM, the CC50 (Malme-3M; [11]) was greater than 100 µM and the growth, % of control at 10 µM (SNB-19 [5]) was 74.4%. It also gave a growth, % of control at 10 µM (SK-OV-3) of 102% and a growth, % of control at 10 µM (MDA-MB-468) of 51.9%.

Work on `COc1ccc(C(=O)/C=C/c2ccc(/C=C/c3ccc(F)cc3)cc2)cc1` yielded a growth, % of control at 10 µM (HCT-15) of 102%, a growth, % of control at 10 µM (MDA-MB-231) of 116% and a growth, % of control at 10 µM (BT-549) of 101%. For the same compound, the growth, % of control at 10 µM (K562 [1]) was 86.3%, the growth, % of control at 10 µM (SNB-75) was 104% and the growth, % of control at 10 µM (IGROV-1 [6]) was 112%. It also gave a growth, % of control at 10 µM (CAKI-1) of 91.2%, a growth, % of control at 10 µM (786-0) of 95.3% and a growth, % of control at 10 µM (A498) of 87.5%. For the same compound, the growth, % of control at 10 µM [2] was 96.1%, the growth, % of control at 10 µM (A549) was 94.9% and the growth, % of control at 10 µM (SF-268) was 113%. For the same compound, the growth, % of control at 10 µM [3] was 108%, the growth, % of control at 10 µM (SF-295) was 94.9% and the growth, % of control at 10 µM (M14) was 95.2%. The growth, % of control at 10 µM (T47D) was 93.8%, the growth, % of control at 10 µM (HT-29) was 104% and the growth, % of control at 10 µM [4] was 101%. The growth, % of control at 10 µM (PC-3) was 106%, the growth, % of control at 10 µM (UACC-62) was 104% and the growth, % of control at 10 µM (LOX IMVI) was 97.4%. For the same compound, the growth, % of control at 10 µM (HOP-62) was 120%, the growth, % of control at 10 µM (HCT-116) was 95.8% and the growth, % of control at 10 µM (SNB-19 [5]) was 100%. The growth, % of control at 10 µM (SK-OV-3) was 99.1% and the growth, % of control at 10 µM (MDA-MB-468) was 112%.

Reference: ChEMBL document CHEMBL3132854, “Synthesis and anticancer activity evaluation of resveratrolchalcone conjugates” (2014)
